Measured values as given in the supplement of paper PMC10307832.

What was measured:
Experiment in all cases: relative viability (nuclei count vs DMSO), 5 days (fraction); higher = more cells survive
Irinotecan + Luminespib = compound: CCc1c2c(nc3ccc(OC(=O)N4CCC(N5CCCCC5)CC4)cc13)-c1cc3c(c(=O)n1C2)COC(=O)[C@]3(O)CC [Irinotecan] + CCNC(=O)c1noc(-c2cc(C(C)C)c(O)cc2O)c1-c1ccc(CN2CCOCC2)cc1 [Luminespib] (partner 0.01 µM)
Outline: (§1)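 Cells from lung cancer lines were seeded into 1536-well plates and, one day later, dosed by pin tool. Treatments were either a single drug or a fixed dose of an anchor drug with five library-drug doses (not always all listed) in √10 steps. After 5 days, nuclei were stained in a one-step fixation (final 0.05% Triton X-100, 1% formaldehyde, 1 ug/ml Hoechst) and counted on 4× images, and relative viability is the treated-to-vehicle nuclei ratio, as the median of duplicate plates.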

MK-8033 + Phenformin = compound: Cn1cc(-c2cnc3ccc4ccc(CS(=O)(=O)NCc5ccccn5)cc4c(=O)c3c2)cn1 [MK-8033] + N=C(N)NC(=N)NCCc1ccccc1 [Phenformin] (partner 250 µM)
Outline: as §1

MK-8033 + Crizotinib = compound: Cn1cc(-c2cnc3ccc4ccc(CS(=O)(=O)NCc5ccccn5)cc4c(=O)c3c2)cn1 [MK-8033] + C[C@@H](Oc1cc(-c2cnn(C3CCNCC3)c2)cnc1N)c1c(Cl)ccc(F)c1Cl [Crizotinib] (partner 1 µM)
Outline: as §1

MK-8033 + Luminespib = compound: Cn1cc(-c2cnc3ccc4ccc(CS(=O)(=O)NCc5ccccn5)cc4c(=O)c3c2)cn1 [MK-8033] + CCNC(=O)c1noc(-c2cc(C(C)C)c(O)cc2O)c1-c1ccc(CN2CCOCC2)cc1 [Luminespib] (partner 0.01 µM)
Outline: as §1

Cell Line | relative viability (Irinotecan + Luminespib; first compound 0.6325 µM) | relative viability (Irinotecan + Luminespib; first compound 2 µM) | relative viability (Irinotecan + Luminespib; first compound 6.325 µM) | relative viability (Irinotecan + Luminespib; first compound 20 µM) | relative viability (MK-8033 + Phenformin; first compound 0.02 µM) | relative viability (MK-8033 + Phenformin; first compound 0.06325 µM) | relative viability (MK-8033 + Phenformin; first compound 0.2 µM) | relative viability (MK-8033 + Phenformin; first compound 0.6325 µM) | relative viability (MK-8033 + Phenformin; first compound 2 µM) | relative viability (MK-8033 + Crizotinib; first compound 0.02 µM) | relative viability (MK-8033 + Crizotinib; first compound 0.06325 µM) | relative viability (MK-8033 + Crizotinib; first compound 0.2 µM) | relative viability (MK-8033 + Crizotinib; first compound 0.6325 µM) | relative viability (MK-8033 + Crizotinib; first compound 2 µM) | relative viability (MK-8033 + Luminespib; first compound 0.02 µM) | relative viability (MK-8033 + Luminespib; first compound 0.06325 µM) | relative viability (MK-8033 + Luminespib; first compound 0.2 µM) | relative viability (MK-8033 + Luminespib; first compound 0.6325 µM) | relative viability (MK-8033 + Luminespib; first compound 2 µM)
NCI-H1666 | 0.858 | 0.721 | 0.658 | 0.331 | 0.588 | 0.598 | 0.548 | 0.612 | 0.527 | 0.909 | 0.942 | 0.982 | 0.999 | 1.01 | 1 | 0.987 | 0.979 | 1.03 | 0.924
NCI-H2085 | 0.312 | 0.431 | 0.445 | 0.519 | 0.736 | 0.554 | 0.694 | 0.703 | 0.674 | 0.873 | 0.804 | 0.867 | 0.801 | 0.977 | 0.471 | 0.483 | 0.378 | 0.447 | 0.415
COR-L23 | 0.235 | 0.36 | 0.223 | 0.165 | 0.41 | 0.422 | 0.402 | 0.432 | 0.421 | 0.58 | 0.721 | 0.489 | 0.73 | 0.506 | 0.696 | 0.595 | 0.722 | 0.661 | 0.606
NCI-H647 | 0.152 | 0.212 | 0.157 | 0.119 | 0.508 | 0.448 | 0.509 | 0.546 | 0.549 | 1.03 | 0.891 | 0.959 | 0.919 | 0.928 | 0.119 | 0.178 | 0.213 | 0.151 | 0.154
LCLC-97TM1 | 0.228 | 0.208 | 0.148 | 0.181 | 0.393 | 0.433 | 0.456 | 0.454 | 0.439 | 0.393 | 0.261 | 0.508 | 0.383 | 0.379 | 0.883 | 0.662 | 0.709 | 0.845 | 0.669
HOP-62 | 0.254 | 0.361 | 0.203 | 0.21 | 0.674 | 0.646 | 0.631 | 0.703 | 0.639 | 0.857 | 0.899 | 0.808 | 0.894 | 0.878 | 0.938 | 0.794 | 0.814 | 0.941 | 0.86
NCI-H520 | 0.249 | 0.257 | 0.256 | 0.303 | 0.766 | 0.424 | 0.503 | 0.639 | 0.542 | 0.797 | 0.678 | 0.663 | 0.59 | 0.78 | 0.22 | 0.207 | 0.226 | 0.211 | 0.219
NCI-H1734 | – | 0.203 | 0.222 | 0.353 | 0.435 | 0.338 | 0.366 | 0.361 | 0.37 | 0.682 | 0.547 | 0.645 | 0.508 | 0.595 | 0.173 | 0.177 | 0.176 | 0.182 | 0.17
NCI-H1650 | – | 0.212 | 0.277 | 0.271 | 0.412 | 0.285 | 0.38 | 0.441 | 0.399 | 0.997 | 0.867 | 0.996 | 0.919 | 0.832 | 0.193 | 0.205 | 0.204 | 0.203 | 0.181
